Assays:
[1] = test system: AIA-M rat model; test: Histology of knee joints of AIA-M rats (H&E, safranin O fast green, Masson trichrome); format: in vivo; settings: all p < 0.05
Method: The viscera indexes were calculated by the weight of the thymus, spleen, liver, and kidney relative to total […]. Histological changes were examined using hematoxylin and eosin (H&E), safranin O-fast green (Solarbio, Beijing, China), and Masson trichrome staining (Baso, Wuhan, China) according to routine protocols. Please see detailed information on the protocol in Supplementary Materials Section 5 . […]
after BHGZD administration (5), respectively.
The rats were acclimatized to an apparatus consisting of individual perspex boxes. With the aid of syringe (1mL), 500μL acetone was sprayed gently from a short distance to the middle of the plantar surface of hind paw. […] The amount of time that rats were licking and/or shaking the hind paw was recorded during 5min after acetone application and was used as an index of nocifensive response for cold hypersensitivity (6). The licking and/or shaking time was measured at 0, 5, 10, 15, 25th day after BHGZD administration, […]
For thermal-induced hyperalgesia, the rats were placed for 30minin an apparatus consisting of individual perspex boxes with Hargreaves radiant heat apparatus (Ugo Basile Srl, Comerio VA, Italy) and an infrared radiant heat (40W) source was directed to middle part of the plantar surface of the hind paw. […] The paw withdrawal latency was measured at 0, 5, 10, 15, 25th day after BHGZD administration, respectively. […]

[2] = test system: NLRP3 inflammasome-induced pyroptosis; test: NLRP3 inflammasome-induced pyroptosis markers in AIA-M rats (TUNEL, IHC, Western blotting, ELISA); format: in vivo, rat; settings: all p < 0.05
Method: The occurrence of pyroptosis in both MH7A cells and synovium tissues in AIA-M rats was determined by in situ TUNEL staining (TUNEL Andy Fluor™ 594 Apoptosis Detection Kit, ABP Biosciences, Wuhan, China) in accordance with the manufacturer’s protocol. Fluorescence images were visualized and photographed with inverted fluorescence microscopes (MF53, MSHOT, Guangzhou, China; Olympus, BX51, Tokyo, Japan). Detailed information on TUNEL assay is provided in Supplementary Materials Section 18 .
To detect the expression levels of NLPR3/ASC of the knee joints in AIA-M rats and corresponding treatment groups, immunohistochemical staining was carried out using a DAB kit (Cat No. AR1027, Boster Biological Technology Co., Ltd., Wuhan, China) and a rabbit/mouse two-step detection kit (Cat No. SV0002/SV0001, Boster Biological Technology Co., Ltd., Wuhan, China) according to the routine protocols. Immunohistochemistry quantification was performed using ImageJ (Image Progressing and Analysis in Java, version 1.42q, https://imagej.nih.gov/ij/), following the ImageJ User Guide. […]
Cell apoptosis was determined by in situ terminal deoxynucleotidyl transferase-mediated dUTP-biotin nick end-labeling reaction (TUNEL) staining (TUNEL Andy Fluor™ 594 Apoptosis Detection Kit, ABP Biosciences, Wuhan, China) in accordance with the […]

## CN(Cc1cnc2nc(N)nc(N)c2n1)c1ccc(C(=O)N[C@@H](CCC(=O)O)C(=O)O)cc1 [MTX, methotrexate]
[1]
  histopathological changes of knee joints (inflammatory cell infiltration, cartilage and bone destruction, synovial hyperplasia): apparently reversed
[2]
  activities of GSDMD-NT in sera and its levels in knee joints: reduced
  activity of LDH in the sera: significantly decreased
